Data reported in patent US20180098950A1, “INHIBITORS OF ABETA AND SYNUCLEIN AGGREGATION” (The Feinstein Institute For Medical Research, priority 2006, published 2018).
Several values for one entry are separate records, joined by “and”; a condition that tells them apart may be missing. Identical values can stand only once. Entries after “also recorded” stand apart in the source; their conditions may differ. Like-named read-outs stand apart in the source and are kept apart here.

How the values were obtained:
[1] = system: APP-expressing TgCRND8 mice; assay: Aβ plaque burden by immunohistochemistry and image analysis in TgCRND8 mice; type: in vivo, mouse; settings: 8 mg/kg i.p. twice a week for 8 weeks, vs vehicle
Method: Animals. All animal procedures were approved by the office of the district president and the institutional animal care and use committee for the University of Munster. We used the TgCRND8 mouse line (courtesy of David Westaway, University of Toronto, Toronto, Ontario, Canada). TgCRND8 mice encode a double mutant form of amyloid precursor protein 695 (KM670/671 NL+V717F) under the control of the PrP gene promoter (Chishti et al., 2001). Thioflavine S-positive Aβ amyloid deposits are present at 3 months, with dense-cored plaques and neuritic pathology evident from 5 months of age.
(§1) Drug treatment of TgCRND8 mice. APP transgenic TgCRND8 mice at 4 months old received twice a week an i.p. injection of 200 μl containing 200 μg CNI-1493 (8 mg/kg) for 8 weeks. There were four animals in each treatment group. Animals were housed singly in individual cages. At the end of the experimental period, animals were killed by decapitation. The brain was dissected and the hemispheres separated along the midline. One hemisphere was fixed in 4% buffered formaldehyde for 24 h followed by dehydration and paraffin embedding. The other hemisphere was immediately snap-frozen in liquid nitrogen and kept at −80° C.
Immunohistochemistry. Three pairs of 2 μm sagittal brain sections of each transgenic animal were stained for Aβ immunoreactivity. The pairs (10 μm distance) were situated 100 μm, 200 μm and 300 μm lateral from the mid-sagittal fissure. All slices were pretreated with formic acid and automatically stained in a TechMate Instrument (Dako Cytomation, Hamburg, Germany) with 6F/3D anti-Aβ monoclonal antibody to residues 8-17 (Dako, 1:100). For further steps, the Dako StreptABC complex-horseradish peroxidase conjugated “Duet” anti mouse/rabbit antibody kit was used and developed with 3, 3′-diaminobenzidine (DAB) as chromogen. Counterstaining was performed with hematoxylin. All slides were stained in two consecutive procedures making sure that brains of both experimental groups were equally distributed in both procedures.
Image analysis. To quantify Aβ plaque burden, cortices and hippocampi of all stained sections were digitalized by a ColorView II, 3, 3 Mega Pixel CCD camera under constant light and filter settings. Color images were converted to greyscale to obtain best contrast between positive immunoreactivity and background. A constant threshold was chosen for all images to detect immunoreactive staining.
Morphometric measurements were performed by image analysis software “SIS analysis Auto Software 3.2” (Soft Imaging System GmbH, http://www.soft-imaging.org/). Total number and surface of plaques was related to the total area analyzed.

F4/80 antigen = assay: Western blot of F4/80 (microglial activation) in brain of treated TgCRND8 mice; type: in vivo, mouse; settings: 8 mg/kg i.p. twice a week for 8 weeks, vs control
Method: as §1
Biochemical analysis. Half of the brain was weighed and homogenized in an appropriate volume of T-PER (Perbio, Bonn, Germany) in accordance to the guidelines of the manufacturer. Lysate protein concentration was measured by BCA kit (Perbio). 15-60 μg protein per sample was loaded onto a pre-cast NuPAGE Novex 4-12% Bis-Tris gel and separated using the Novex electrophoresis system (Invitrogen, Karsruhe, Germany). Subsequently, the proteins were transferred onto nitrocellulose membranes (Invitrogen) using the XCell II™ blot (Invitrogen). The immobilized proteins were visualized using MemCode reversible protein staining kit (Perbio). […] Equal protein loading of all membranes was assessed by reprobing with monoclonal antibodies against GAPDH (Acris, Hiddenhausen, Germany).

[2] = system: N2a cells expressing wild type APP695; assay: APP processing analysis in N2a cells; type: cell-based; settings: 24 h treatment
Method: APP processing analysis in N2a cells. APP695-transfected N2a cells (Marambaud et al., 2005) were grown in 1:1 DMEM/Opti-MEM supplemented with 5% FBS, penicillin and streptomycin, and 0.2 mg/ml G418. Cells were treated at confluency for 24 h with the indicated concentrations of CNI-1493. Medium was then changed and treatments were continued for another 2 h to allow Aβ secretion. Twenty microliters of conditioned medium were electrophoresed on 16.5% Tris-Tricine gels and transferred onto […] nitrocellulose membranes. Membranes were then microwaved for 5 min in PBS, blocked in 5% fat-free milk in TBS, and incubated with 6E10 (Signet, 1:1000 in Pierce SuperBlock) overnight at 4° C. Cells were washed with PBS and solubilized in ice-cold HEPES buffer (25 mM HEPES, pH 7.4, 150 mM NaCl, 1× Complete protease inhibitor cocktail, Roche) containing 1% SDS. Ten micrograms of extracts were analyzed by western blot with 6E10, R1 (anti-APP C-terminal domain, reference 21), and LN27 (anti-APP1-200, Zymed).

Aβ42 [3] = biological target: T1, Aβ42 (Homo sapiens, UniProt P05067); assay: Anti-oligomer antibody ELISA, Aβ42
T1 construct: less abundant 42-amino acid form (Aβ42)
T1 sequence (P05067 672-713 limits assumed): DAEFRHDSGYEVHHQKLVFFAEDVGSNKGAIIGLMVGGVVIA

Aβ40 = biological target: T2, Aβ40 (Homo sapiens, UniProt P05067); assay: Anti-oligomer antibody ELISA, Aβ40
T2 construct: The 40-amino acid form (Aβ340) is the most abundantly produced Aβ peptide
T2 sequence (P05067 672-711 limits assumed): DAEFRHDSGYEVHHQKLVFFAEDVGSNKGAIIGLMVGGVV

synuclein = synuclein (Homo sapiens, UniProt P37840); assay: Anti-oligomer antibody ELISA, synuclein
Method: The ability of CNI-1493 to prevent aggregation of synuclein was tested by determining the recognition of synuclein by an anti-oligomer antibody (gift of Dr. C. Glabe, University of California at Irvine) in an ELISA assay.

Aβ42 [4] = biological target: T1, Aβ42; assay: Aβ oligomer ELISA with various concentrations of CNI-1493; settings: Aβ42 with increasing concentrations of CNI-1493
From the text: Aβ42 was combined with various concentrations of CNI-1493 and Aβ oligomers were quantified by ELISA using Aβ oligomer-specific antibodies.

Aβ42 [5] = biological target: T1, Aβ42; assay: Electron microscopy of Aβ42 oligomer fibrilization; settings: Aβ42 oligomers with vs without CNI-1493
primary neurons = assay: Aβ toxicity in primary neurons; type: cell-based
From the text: To determine whether the CNI-1493-treated form of Aβ is toxic, Aβ that had been pretreated with, or without, CNI-1493 was combined with SY5Y neuroblastoma cells. Toxicity was monitored using MTT (thiazolyl blue) reduction (mitochondrial succinate dehydrogenase activity) and lactate dehydrogenase activity (LDH). The MTT and LDH assays correlated with each other. […] Additionally, the protective effect of CNI-1493 was examined in similar assays using primary neurons.

| SMILES | reduction of plaque area (square micrometers per area of interest in square mm) ([1]; cortex) [%] | reduction of plaque number (plaques per area of interest in square mm) ([1]; cortex) [%] | reduction of plaque number (plaques per area of interest in square mm) ([1]; hippocampus) [%] | reduction of plaque area (square micrometers per area of interest in square mm) ([1]; hippocampus, 8 mg/kg) | microglial activation, F4/80 expression in brain (western blot) (F4/80 antigen) | full length APP production (LN27) [2] | β- or γ-secretase cleavage of APP (C99, C83 fragments) [2] | total Aβ secreted into the medium (western blot, 6E10) ([2]; then medium change and continued treatment) | recognition by anti-oligomer antibody (aggregation) (Aβ42 [3]) | recognition by anti-oligomer antibody (aggregation) (Aβ42 [3]; listed as CNI-1492) | recognition by anti-oligomer antibody (aggregation) (Aβ40) | recognition by anti-oligomer antibody (aggregation) (Aβ40; listed as CNI-1492) | recognition by anti-oligomer antibody (aggregation) (synuclein) | recognition by anti-oligomer antibody (aggregation) (synuclein; listed as CNI-1492) | Aβ oligomers by ELISA (final OD) (Aβ42 [4]) | formation of fibrillar aggregates (electron microscopy) (Aβ42 [5]) | protection from Aβ toxicity (primary neurons) |
| --- | --- | --- | --- | --- | --- | --- | --- | --- | --- | --- | --- | --- | --- | --- | --- | --- | --- |
| CC(=NNC(=N)N)c1cc(NC(=O)CCCCCCCCC(=O)Nc2cc(C(C)=NNC(=N)N)cc(C(C)=NNC(=N)N)c2)cc(C(C)=NNC(=N)N)c1.Cl.Cl.Cl.Cl [CNI-1493, N,N′-bis(3,5-diacetylphenyl)decanediamide tetrakis(amidinohydrazone) tetrahydrochloride] | 70 | 57 | 60 | 87% and 86% | significant reduction in microglial activation; also recorded: decrease of F4/80 signal; also recorded: decline of F4/80 in all CNI-1493 animals | not accompanied by reduced levels of APP production | no effect | profound dose-dependent decrease of total Aβ accumulation; also recorded: dose-dependent, dramatic reduction; also recorded: profound dose-dependent decrease of total Aβ secretion | prevents aggregation | reduced recognition by the antibody | prevents aggregation | reduced recognition by the antibody | prevents aggregation | reduced recognition by the antibody | reduced the final OD in the ELISA; also recorded: reduction in recognition of Aβ oligomers | do not form the fibrillar aggregates; also recorded: inhibited Aβ42 oligomer fibrilization | protected the neurons from Aβ toxicity |
| N=C(N)c1ccc(OCCCCCOc2ccc(C(=N)N)cc2)cc1 [pentamidine, reference compound] |  |  |  |  |  |  |  |  | reduced recognition by the antibody |  | reduced recognition by the antibody |  | reduced recognition by the antibody |  |  |  |  |
